The record followed here is US6649648B1, “Therapeutic methods and compositions involving isoflavones” (Novogen Research Pty Limited, priority 1996, dated 2003).

The test system of one experiment is human LDL. In words: Redox Test (LDL lipid oxidation in the presence of vitamin E). The settings on record: for Redox Index: human LDL, 20% consumption of endogenous α-tocopherol, BHT 10 μm, lower value = higher activity. In kind it is biochemical. An excerpt: 2. Redox Test—This test measures the ability of a compound to prevent LDL lipid oxidation in the presence of vitamin E. The test is a physiological test, vitamin E (α-tocopherol) is present with LDL in the blood stream, and LDL oxidation is believed to be one of the major factors of the development of atherosclerosis. The lower values, the higher the redox activity. […] The test indirectly assesses the ability of a compound to synergise with α-tocopherol in human LDL undergoing mild and chemically controlled oxidation. Oxidation is measured by the accumulation of cholesterylester hydroperoxides at a time point corresponding to 20% consumption of endogenous α-tocopherol. Butylated hydroxytoluene (BHT 10 μm) is used as a positive control. The redox index is measured by the relative extent of oxidation of LDL in the presence of the sample divided by the relative extent of oxidation in the absence of the test compounds. […] Tests were carried out according to Bowry, V. W. et al (1995) J. Bio. Chem. 270 (11) 5756-5763.

Another experiment relates to breast cancer. In words: Prevention of breast cancer in high risk women, transdermal patch. It is filed as in vivo, human. The following applies: same manner and amount, six month trial period. As for the experimental part: This study investigated whether compounds 1 through 19 administered transdermally each day through a skin patch could be used to prevent breast cancer or metastatic cancers following cancer therapy. Patches were prepared that contained a lipophylic carrier cream which is readily absorbed through the skin. The cream comprised a glycerol cold cream which contained glycerin and peanut oil. A selected active compound from any one of compounds of the formulae 1 to 19 is mixed with the lipophylic cream such that each patch comprises 10 mg to 100 mg of active compound. The patch is applied to the skin each day and rapid absorption occurs. After two hours the patch is removed. Alternatively, the patch may be left on for a greater part of each day.

The next experiment relates to bowel cancer. In words: Patients with advanced or terminal bowel cancer. In kind it is in vivo, human. The settings on record: intravenous infusion 2 g daily, three weeks, advanced bowel cancer. As for the experimental part: A patient suffering from advanced bowel cancer is treated daily for three weeks with an intravenous infusion of 2 g of the compound of the formula 14 dissolved in sterile saline. […] Progression of the tumour is also arrested over the treatment period.
A second patient suffering from the same condition is treated in the same manner as the above patient with the exception that the 2 g dose of the active compound is administered by way of bolus injection.
In a further series of experiments a group of patients suffering from terminal bowel cancer were treated by bolus daily injections (intravenous or intramuscular) of 2 g of a compound selected from one of the formulae 1 to 19. Over the test period there is shown to be a marked reduction in pain and discomfort. Tumour markers (carcino-embryonic antigen (CEA)) are reduced as evidenced by blood analysis and tumour spread decreased.

The test system of the next experiment is LDL. In words: LDL Antioxidation Test. In kind it is biochemical. The settings on record: for Lag Times / % Increase Over Control: LDL 0.25 mg/ml, 10 μm active compound, 4 μm Cu++; for Lag Times: control 20 min; for antioxidant potency (in words): conclusion from the LDL antioxidation test; for % Increase Over Control: lag time. The procedure:
1. LDL Antioxidation Test—This test measures the ability of a compound to directly scavenge free radicals or to chelate transition metals. […] These tests were carried out according to the procedure of Esterbauer et al Free. Rad. Res. Coms. (1989) 6, 67-75. Briefly, LDL (0.25 mg/ml) is incubated with 10 μm active compound in the presence of 4 μm Cu^++, and LDL was assayed for oxidation by HPLC analysis.

Another experiment concerns rat aortic rings. In words: Vascular reactivity, rat aortic rings with noradrenaline. In kind it is cell-based. The following applies: rat aortic ring, vasoconstrictor noradrenaline. As for the experimental part: Vascular reactivity studies using rat aortic rings is generally regarded as directly predictive of biological effects of candidate compounds in the treatment of the above conditions (Karapapanis, S. et al (1994) Heptology, 20, 6, 1516-1521). The inhibitory effect on restrictor responses in the aortic ring is measured in the presence of the vasoconstrictor noradrenaline according to the procedure of Karapapanis (supra).

The subject of the next experiment is K562. In words: Anti-cancer screening assay, inhibition of cell proliferation. It is filed as cell-based, human. The settings on record: cell line printed K563 at the result. As for the experimental part:
(§1) The activity of compounds of the present invention in inhibiting the growth of hormone responsive cancer cells were tested using the well characterised human responsive cancer cell lines K562 and HL60. The anti-cancer screening assay measured inhibition of cell proliferation which results in terminal differential cell death.

A further experiment concerns HL60. The experiment is described as above. In kind it is cell-based, human. As for the experimental part:
as §1

Another experiment has as its system LDL receptor. In words: LDL Receptor Studies, LDL uptake into liver cells. It is filed as cell-based. The source says: 4. LDL Receptor Studies—Treatment of atherosclerosis, myocardial infarction, stroke and hypertension. This will establish that compounds which up-regulate the LDL receptor, lead to decreased circulating LDL, and therefore reduces the prospect of atherosclerosis, myocardial infarction, stroke and hypertension. Using an assay according to Stephan Z. F. and Yurachek, E. C. (1993) J. Lipid. Res. 34, 325-330, it is shown that the compounds of the formulae 1 to 19 are effective in increasing LDL uptake into liver cells, this being directly predictive of decrease of circulating LDL in the human blood stream.

Take `Cc1cc(C(C)(C)C)c(O)c(C(C)(C)C)c1` [BHT, Butylated hydroxytoluene, reference compound]: in the experiment with human LDL, the “Redox Index” value was 6.3.

As to `C=C(C(=O)c1ccc(O)cc1O)c1ccc(O)cc1` [Compound 11, 2-dehydro-O-demethylangolensin], the “evidence of breast cancer or other metastatic cancer” value in the experiment with breast cancer is recorded as “same beneficial results”.

Regarding `CC(C(=O)c1c(O)cc(O)cc1O)c1ccc(O)cc1` (stereo not shown) [Compound 14, 6-hydroxy-O-demethylangolensin], the “evidence of breast cancer or other metastatic cancer” value in the experiment on breast cancer was “same beneficial results”. In addition, in the experiment with bowel cancer, the cancer markers entry is “reduction”; the pain and discomfort result is on record as “significantly reduced”; the “progression of the tumour” value is “arrested”.

For the compound `Oc1ccc(C2=Cc3ccc(O)cc3OC2)cc1` [Dehydroequol], in the experiment with LDL, the “Lag Times” value is >140 min, the “antioxidant potency (in words)” value is reported as “extremely potent antixoidants” and the “% Increase Over Control” value is >600%. The “synergistic interaction with vitamin E to prevent oxidation” value in the experiment on human LDL (Redox Test) was “interacts synergistically with vitamin E to prevent oxidation”. Moreover, the “Redox Index” value in the experiment with human LDL is reported as 4.5±1.2.

Turning to `O=C1c2ccc(O)cc2OCC1c1ccc(O)cc1` (stereo not shown) [Dihydrodaidzein, dihydrodaidzein], in the experiment on rat aortic rings, the “inhibitory effect on vaso-constrictor responses to noradrenaline” value (from here on “inhibitory effect”) is “potent inhibitory effects on responses to noradrenaline”.

`O=C1c2c(O)cc(O)cc2OCC1c1ccc(O)cc1` (stereo not shown) [dihydrogenestein, Dihydrogenistein]: the “inhibitory effect” value in the experiment with rat aortic rings is reported as “potent inhibitory effects on responses to noradrenaline”.

Regarding `Oc1ccc([C@H]2COc3cc(O)ccc3C2)cc1` [equol], the “inhibition of growth of cell line” value with K562 and with HL60 was “potent inhibitors of growth” each time. Also, the “inhibitory effect” value in the experiment on rat aortic rings is reported as “potent inhibitory effects on responses to noradrenaline”. The “increase of LDL uptake into liver cells” value in the experiment on LDL receptor was “particularly active”.

In the case of Tetrahydrodaidzein, the “inhibition of growth of cell line” value in the experiment on HL60 is given as “strong inhibition”. Also, the “inhibitory effect” value in the experiment on rat aortic rings is on record as “potent inhibitory effects on responses to noradrenaline”. Besides, in the experiment with LDL, the “Lag Times” value is >140 min, the “antioxidant potency (in words)” value is recorded as “extremely potent antixoidants” and the “% Increase Over Control” value was >600%.
